How the values were obtained:
[1] = biological target: Cannabinoid receptor 2 (Homo sapiens, UniProt P34972); test: (§1) cAMP Assay: CHO cells expressing human CB1 or CB2 receptors are seeded 17-24 hours prior to the experiment 50.000 cells per well in a black 96 well plate with flat clear bottom (Corning Costar #3904) in DMEM (Invitrogen No. 31331), 1×HT supplement, with 10% fetal calf serum and incubated at 5% CO2 and 37 °C. in a humidified incubator. The growth medium was exchanged with Krebs Ringer Bicarbonate buffer with 1 mM IBMX and incubated at 30 °C. for 30 min. Compounds were added to a final assay volume of 100 μl and incubated for 30 min at 30 °C. Using the cAMP-Nano-TRF detection kit the assay (Roche Diagnostics) was stopped by the addition of 50 μl lysis reagent (Tris, NaCl, 1.5% Triton X100, 2.5% NP40, 10% NaN3) and 50 μl detection solutions (20 μM mAb Alexa700-cAMP 1:1, and 48 μM Ruthenium-2-AHA-cAMP) and shaken for 2 h at room temperature. The time-resolved energy transfer is measured by a TRF reader (Evotec Technologies GmbH), equipped with a ND:YAG laser as excitation source. The plate is measured twice with the excitation at 355 nm and at the emission with a delay of 100 ns and a gate of 100 ns, total exposure time 10 s at 730 (bandwidth 30 nm) or 645 nm (bandwidth 75 nm), respectively. The FRET signal is calculated as follows: FRET=T730-Alexa730-P(T645-B645) with P=Ru730-B730/Ru645-B645, where T730 is the test well measured at 730 nM, T645 is the test well measured at 645 nm, B730 and B645 are the buffer controls at 730 nm and 645 nm, respectively. cAMP content is determined from the function of a standard curve spanning from 10 μM to 0.13 nM cAMP.; assay type: functional, cell-based
Sequence of Cannabinoid receptor 2 (P34972 whole entry): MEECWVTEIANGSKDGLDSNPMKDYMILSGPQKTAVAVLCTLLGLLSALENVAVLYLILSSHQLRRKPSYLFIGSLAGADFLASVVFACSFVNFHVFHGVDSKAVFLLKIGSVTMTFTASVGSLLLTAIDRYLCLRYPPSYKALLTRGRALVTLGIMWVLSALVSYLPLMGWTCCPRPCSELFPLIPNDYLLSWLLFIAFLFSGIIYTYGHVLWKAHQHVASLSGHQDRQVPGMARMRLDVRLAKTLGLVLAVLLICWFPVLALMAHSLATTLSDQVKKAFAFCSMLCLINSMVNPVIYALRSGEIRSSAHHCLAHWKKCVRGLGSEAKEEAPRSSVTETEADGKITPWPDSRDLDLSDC

[2] = biological target: Cannabinoid receptor 1 (Homo sapiens, UniProt P21554); test: as §1; assay type: functional, cell-based
Sequence of Cannabinoid receptor 1 (P21554 whole entry): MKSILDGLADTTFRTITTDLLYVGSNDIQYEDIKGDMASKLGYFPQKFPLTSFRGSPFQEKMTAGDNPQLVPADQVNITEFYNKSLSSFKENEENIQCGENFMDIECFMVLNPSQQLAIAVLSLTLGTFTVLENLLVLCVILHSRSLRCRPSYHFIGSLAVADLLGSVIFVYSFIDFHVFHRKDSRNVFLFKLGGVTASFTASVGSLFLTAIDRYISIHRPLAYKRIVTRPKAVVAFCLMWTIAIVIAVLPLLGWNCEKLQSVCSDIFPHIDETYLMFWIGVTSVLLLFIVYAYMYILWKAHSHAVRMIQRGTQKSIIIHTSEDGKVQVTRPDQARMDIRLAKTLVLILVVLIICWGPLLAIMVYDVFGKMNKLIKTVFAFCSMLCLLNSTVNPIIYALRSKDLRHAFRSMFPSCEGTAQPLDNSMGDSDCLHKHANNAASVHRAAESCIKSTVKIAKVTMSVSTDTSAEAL

SMILES | EC50 [1] [nM] | EC50 [2] [nM]
CC1(C)CC(C(N)=O)N(C(=O)c2ccc(N3CC(F)(F)C3)c(OCC3CC3)n2)C1 (stereo not drawn) | 6.6 | 
CC(C)N(C(=O)c1ccc(N2CC(F)(F)C2)c(OCC2CC2)n1)C(C)C | 12.6 | > 10000

Reference: ChEMBL document CHEMBL3886637, “Pyridine-2-amides useful as CB2 agonists” (2016)
